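Protocol summary: plate cells (96-well), add compound at 5 concentrations, incubate 48 h, interpolate endpoints linearly. GI50: concentration for 50% inhibition of growth. Definition used: TGI = concentration required for complete inhibition of growth.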
Columns and labels:
Test in all cases: NCI tumour cell line growth inhibition, 48 h
SW-620 colon = test system: SW-620 colon
SK-MEL-28 melanoma = test system: SK-MEL-28 melanoma
HT29 colon = test system: HT29 colon
RXF 393 renal = test system: RXF 393 renal
K-562 leukemia = test system: K-562 leukemia
NCI-H460 lung = test system: NCI-H460 lung
ACHN renal = test system: ACHN renal
RPMI-8226 leukemia = test system: RPMI-8226 leukemia
CAKI-1 renal = test system: CAKI-1 renal
MALME-3M melanoma = test system: MALME-3M melanoma

Compound	TGI (SW-620 colon) [µM]	TGI (SK-MEL-28 melanoma) [µM]	TGI (HT29 colon) [µM]	TGI (RXF 393 renal) [µM]	TGI (K-562 leukemia) [µM]	TGI (NCI-H460 lung) [µM]	TGI (ACHN renal) [µM]	TGI (RPMI-8226 leukemia) [µM]	TGI (CAKI-1 renal) [µM]	TGI (MALME-3M melanoma) [µM]	GI50 (SW-620 colon) [µM]	GI50 (SK-MEL-28 melanoma) [µM]	GI50 (HT29 colon) [µM]	GI50 (RXF 393 renal) [µM]	GI50 (K-562 leukemia) [µM]	GI50 (NCI-H460 lung) [µM]	GI50 (ACHN renal) [µM]	GI50 (RPMI-8226 leukemia) [µM]	GI50 (CAKI-1 renal) [µM]	GI50 (MALME-3M melanoma) [µM]
O=C(Cl)C1=C(c2ccccc2)C1c1ccccc1 (stereo not given)	> 100	> 100	> 100	> 100	> 100	> 100	> 100	> 100	> 100	> 100	–	–	–	–	–	–	–	–	–	–
CC1c2ccccc2N=C2SC(=S)N3CCN=C3N21 (stereo not given)	> 100	> 100	> 100	> 100	> 100	> 100	> 100	> 100	> 100	> 100	> 100	> 100	> 100	> 100	> 100	> 100	> 100	> 100	> 100	> 100
CC1(O)CCn2c(=O)c3cc4ccccc4cc3c(=O)n2C1O (stereo not given)	> 100	> 100	> 100	> 100	> 100	> 100	> 100	> 100	> 100	> 100	–	–	–	–	–	–	–	–	–	–
CC(=Nc1ccc(S(N)(=O)=O)cc1)c1c(O)[nH]c2ccccc12	> 25	> 25	> 25	> 25	> 25	> 25	> 25	> 25	> 25	> 25	> 18.5	> 25	> 25	> 25	> 25	> 23.9	> 25	> 25	17.1	> 25
CCCCCCC(C)CCCCCCCCCCC(=O)O (stereo not given)	> 100	> 100	> 100	> 100	> 100	> 100	> 100	> 100	> 100	> 100	–	–	–	–	–	–	–	–	–	–
CC(C)[O-].CC(C)[O-].CN(CCN(C)Cc1cc(F)cc(F)c1[O-])Cc1cc(F)cc(F)c1[O-].[Ti+4]	3.3	2.17	3.81	1.31	5.49	2.83	8.34	4.44	6.45	1.43	0.828	0.692	1.72	0.357	0.835	0.575	1	0.882	0.874	0.379
COc1cc2nc(-c3ccc(C(F)(F)F)cc3)cc(OCCCN3CCCC3)c2cc1OC	29.6	5.65	5.85	3.85	4.54	19.6	> 34.1	1.6	14	5.59	2.59	1.69	0.429	0.448	0.445	0.597	0.754	0.0786	0.245	1.66
Cn1c(=O)nc2n(-c3ccc(Cl)c(C(F)(F)F)c3)c3ccccc3nc-2c1=O	62	> 100	64.8	> 100	> 100	> 100	> 100	> 100	> 100	34.7	–	–	–	–	–	–	–	–	–	–
O=C1c2cccc3cccc(c23)C(=O)N1O	> 100	> 100	> 100	68.5	> 100	> 100	> 100	> 100	> 100	> 100	–	–	–	–	–	–	–	–	–	–
CCCCCCCCCCCCCCCCCCOCC(COCCOCC[N+]1(CCCCCC(=O)[O-])CCCC1)Oc1ncccn1 (stereo not given)	19.2	22.2	13.7	10.4	14.2	16.8	23.7	8.96	22.7	32.8	–	–	–	–	–	–	–	–	–	–
O=[N+]([O-])c1ccc(-c2cc3c(Nc4ccc(Cl)c(C(F)(F)F)c4)ncnc3s2)cc1	> 100	> 100	> 100	6.19	> 100	> 100	7.6	2.81	8.32	4.19	2.86	2.24	1.49	1.79	0.872	0.774	2.42	0.555	2.22	1.51
CCN(CC)c1ccc(/C=C/C2=[N+](C)c3ccccc3C2(C)C)c(C)c1	12.8	2.73	1.32	2.85	12.2	1.3	3.97	0.466	12	1.09	0.0703	0.151	0.0463	0.0837	0.0377	< 0.0222	0.0773	< 0.0164	0.926	0.155
C=C1C(=O)C23C(O)C1CC[C@H]2C12CCCC(C)(COC(C)=O)[C@H]1[C@H](O)[C@]3(O)OC2 (stereo not given in full)	1.92	2.97	3.36	1.58	1.07	6.36	3.32	1.76	3.44	3.01	–	–	–	–	–	–	–	–	–	–

— PubChem BioAssay (NCI)
